Experimental data: ChEMBL document CHEMBL4007467, “Effects of 6-paradol, an unsaturated ketone from gingers, on cytochrome P450-mediated drug metabolism” (Bioorg Med Chem Lett, 2017)

Assays:
Type in all cases: ADME
Cytochrome P450 2D6 [1] = target: T1, Cytochrome P450 2D6 (Homo sapiens, UniProt P10635); assay: Inhibition of CYP2D6 in human liver microsomes using dextromethorphan as substrate preincubated for 10 mins followed by NADPH addition measured after 15 mins
Cytochrome P450 2E1 [2] = target: T2, Cytochrome P450 2E1 (Homo sapiens, UniProt P05181); assay: Inhibition of CYP2E1 in human liver microsomes using chlorzoxazone as substrate by HPLC analysis
T2 sequence (P05181 whole entry): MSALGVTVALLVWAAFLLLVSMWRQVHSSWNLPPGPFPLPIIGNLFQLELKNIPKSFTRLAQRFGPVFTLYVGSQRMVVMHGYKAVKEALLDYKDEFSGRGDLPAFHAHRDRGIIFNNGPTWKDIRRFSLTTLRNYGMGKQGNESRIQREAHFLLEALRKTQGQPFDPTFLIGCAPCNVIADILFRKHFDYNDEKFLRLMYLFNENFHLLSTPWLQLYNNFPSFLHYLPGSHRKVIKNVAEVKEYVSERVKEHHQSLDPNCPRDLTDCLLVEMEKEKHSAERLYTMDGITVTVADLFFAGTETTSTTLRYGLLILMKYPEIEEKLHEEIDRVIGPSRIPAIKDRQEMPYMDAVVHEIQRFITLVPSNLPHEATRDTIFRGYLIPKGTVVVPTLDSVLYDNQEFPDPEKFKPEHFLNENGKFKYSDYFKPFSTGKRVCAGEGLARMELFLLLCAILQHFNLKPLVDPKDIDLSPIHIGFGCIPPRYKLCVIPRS

Cytochrome P450 2C9 [3] = target: T3, Cytochrome P450 2C9 (Homo sapiens, UniProt P11712); assay: Inhibition of CYP2C9 in human liver microsomes using tolbutamide as substrate by HPLC analysis
T3 sequence (P11712 whole entry): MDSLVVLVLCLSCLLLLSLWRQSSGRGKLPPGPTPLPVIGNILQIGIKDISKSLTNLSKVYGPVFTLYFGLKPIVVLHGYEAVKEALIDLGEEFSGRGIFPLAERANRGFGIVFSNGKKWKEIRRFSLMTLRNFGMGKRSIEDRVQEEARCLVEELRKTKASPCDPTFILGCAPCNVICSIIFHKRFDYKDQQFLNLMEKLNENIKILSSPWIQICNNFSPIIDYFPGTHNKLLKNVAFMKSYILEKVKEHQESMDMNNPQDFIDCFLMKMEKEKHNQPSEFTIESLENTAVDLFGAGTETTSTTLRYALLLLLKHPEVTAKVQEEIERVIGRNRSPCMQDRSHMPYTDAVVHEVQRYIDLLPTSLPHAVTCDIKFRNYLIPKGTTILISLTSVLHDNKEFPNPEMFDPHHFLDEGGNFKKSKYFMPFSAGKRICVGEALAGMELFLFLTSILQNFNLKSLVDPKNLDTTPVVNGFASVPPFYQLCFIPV

Cytochrome P450 2B6 = target: T4, Cytochrome P450 2B6 (Homo sapiens, UniProt P20813); assay: Inhibition of CYP2B6 in human liver microsomes using bupropion as substrate preincubated for 10 mins followed by NADPH addition measured after 20 mins
T4 sequence (P20813 whole entry): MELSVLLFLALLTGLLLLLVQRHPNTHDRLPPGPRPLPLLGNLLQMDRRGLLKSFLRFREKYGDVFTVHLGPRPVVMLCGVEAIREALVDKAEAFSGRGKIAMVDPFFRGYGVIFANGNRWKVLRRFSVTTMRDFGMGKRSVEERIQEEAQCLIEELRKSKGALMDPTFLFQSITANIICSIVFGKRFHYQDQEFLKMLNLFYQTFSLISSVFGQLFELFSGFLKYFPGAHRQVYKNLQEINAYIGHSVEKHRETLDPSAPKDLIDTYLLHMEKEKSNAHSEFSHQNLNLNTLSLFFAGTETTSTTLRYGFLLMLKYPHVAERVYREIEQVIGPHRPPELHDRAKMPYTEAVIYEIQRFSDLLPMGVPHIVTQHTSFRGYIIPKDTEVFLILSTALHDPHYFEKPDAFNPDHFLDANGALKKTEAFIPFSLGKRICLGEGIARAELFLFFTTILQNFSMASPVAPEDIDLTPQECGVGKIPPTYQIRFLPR

Cytochrome P450 2C9 [4] = target: T3, Cytochrome P450 2C9; assay: Inhibition of CYP2C9 in human liver microsomes using diclofenac as substrate preincubated for 10 mins followed by NADPH addition measured after 7 mins
Cytochrome P450 1A2 [5] = target: T5, Cytochrome P450 1A2 (Homo sapiens, UniProt P05177); assay: Inhibition of CYP1A2 in human liver microsomes using phenacetin as substrate by HPLC analysis
T5 sequence (P05177 whole entry): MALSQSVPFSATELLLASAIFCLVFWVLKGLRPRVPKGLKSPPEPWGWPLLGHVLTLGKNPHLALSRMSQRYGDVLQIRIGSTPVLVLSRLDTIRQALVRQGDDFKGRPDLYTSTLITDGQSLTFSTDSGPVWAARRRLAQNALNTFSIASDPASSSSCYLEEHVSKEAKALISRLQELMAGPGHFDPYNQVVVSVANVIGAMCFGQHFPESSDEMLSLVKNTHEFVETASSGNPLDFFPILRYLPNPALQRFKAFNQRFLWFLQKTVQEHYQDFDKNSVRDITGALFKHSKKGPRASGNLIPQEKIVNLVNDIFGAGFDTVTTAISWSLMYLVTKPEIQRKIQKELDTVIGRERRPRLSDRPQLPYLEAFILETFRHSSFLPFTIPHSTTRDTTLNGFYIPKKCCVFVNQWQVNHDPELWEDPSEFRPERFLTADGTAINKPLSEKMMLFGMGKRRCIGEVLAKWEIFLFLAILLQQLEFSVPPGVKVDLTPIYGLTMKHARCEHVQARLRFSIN

Cytochrome P450 2C8 = target: T6, Cytochrome P450 2C8 (Homo sapiens, UniProt P10632); assay: Inhibition of CYP2C8 in human liver microsomes using amodiaquin as substrate preincubated for 10 mins followed by NADPH addition measured after 10 mins
T6 sequence (P10632 whole entry): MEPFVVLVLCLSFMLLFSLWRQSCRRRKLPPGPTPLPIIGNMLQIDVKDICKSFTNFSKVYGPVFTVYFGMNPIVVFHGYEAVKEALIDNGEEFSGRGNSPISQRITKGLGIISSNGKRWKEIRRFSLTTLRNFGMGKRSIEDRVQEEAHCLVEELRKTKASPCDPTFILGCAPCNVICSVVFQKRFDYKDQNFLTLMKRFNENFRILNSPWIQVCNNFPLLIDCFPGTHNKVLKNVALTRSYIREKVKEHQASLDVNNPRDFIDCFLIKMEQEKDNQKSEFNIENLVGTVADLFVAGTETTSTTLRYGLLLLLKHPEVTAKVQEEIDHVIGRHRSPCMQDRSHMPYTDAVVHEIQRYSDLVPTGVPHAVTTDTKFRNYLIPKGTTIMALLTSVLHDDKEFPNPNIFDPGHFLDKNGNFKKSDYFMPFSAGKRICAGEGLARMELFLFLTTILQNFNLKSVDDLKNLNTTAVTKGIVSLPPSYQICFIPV

Cytochrome P450 3A4 [6] = target: T7, Cytochrome P450 3A4 (Homo sapiens, UniProt P08684); assay: Inhibition of CYP3A4 in human liver microsomes using midazolam as substrate preincubated for 10 mins followed by NADPH addition measured after 5 mins
T7 sequence (P08684 whole entry): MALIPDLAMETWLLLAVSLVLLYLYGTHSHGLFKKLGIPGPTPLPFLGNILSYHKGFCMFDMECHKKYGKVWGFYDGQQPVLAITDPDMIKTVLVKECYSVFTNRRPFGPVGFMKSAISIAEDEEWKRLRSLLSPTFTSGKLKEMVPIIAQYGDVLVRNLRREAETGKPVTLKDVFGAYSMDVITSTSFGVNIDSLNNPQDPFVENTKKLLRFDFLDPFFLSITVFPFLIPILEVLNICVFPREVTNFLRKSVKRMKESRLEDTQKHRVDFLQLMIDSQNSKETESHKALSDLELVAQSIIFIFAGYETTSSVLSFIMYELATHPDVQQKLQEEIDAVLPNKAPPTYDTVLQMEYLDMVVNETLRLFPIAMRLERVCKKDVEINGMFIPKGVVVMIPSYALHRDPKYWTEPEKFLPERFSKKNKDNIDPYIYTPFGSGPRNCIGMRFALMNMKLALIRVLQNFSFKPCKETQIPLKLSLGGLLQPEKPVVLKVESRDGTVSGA

Cytochrome P450 3A4 [7] = target: T7, Cytochrome P450 3A4; assay: Inhibition of CYP3A4 in human liver microsomes using testosterone as substrate preincubated for 10 mins followed by NADPH addition measured after 10 mins
Cytochrome P450 1A2 [8] = target: T5, Cytochrome P450 1A2; assay: Inhibition of CYP1A2 in human liver microsomes using phenacetin as substrate preincubated for 10 mins followed by NADPH addition measured after 10 mins
Cytochrome P450 2C19 [9] = target: T8, Cytochrome P450 2C19 (Homo sapiens, UniProt P33261); assay: Inhibition of CYP2C19 in human liver microsomes using (S)-mephenytoin as substrate by HPLC analysis
T8 sequence (P33261 whole entry): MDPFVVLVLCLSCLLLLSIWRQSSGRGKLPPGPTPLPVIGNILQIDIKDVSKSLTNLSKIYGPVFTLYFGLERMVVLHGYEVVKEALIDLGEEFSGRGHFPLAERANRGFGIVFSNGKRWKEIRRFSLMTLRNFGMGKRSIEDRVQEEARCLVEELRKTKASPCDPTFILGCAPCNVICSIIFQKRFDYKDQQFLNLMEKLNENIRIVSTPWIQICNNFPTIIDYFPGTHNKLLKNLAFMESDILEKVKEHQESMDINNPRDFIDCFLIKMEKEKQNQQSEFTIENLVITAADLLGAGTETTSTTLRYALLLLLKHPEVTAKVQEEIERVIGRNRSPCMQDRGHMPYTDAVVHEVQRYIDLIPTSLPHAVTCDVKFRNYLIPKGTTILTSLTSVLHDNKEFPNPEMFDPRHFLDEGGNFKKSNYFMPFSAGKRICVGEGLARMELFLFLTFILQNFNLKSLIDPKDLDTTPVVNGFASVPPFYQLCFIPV

Cytochrome P450 2E1 [10] = target: T2, Cytochrome P450 2E1; assay: Inhibition of CYP2E1 in human liver microsomes using chlorzoxazone as substrate preincubated for 10 mins followed by NADPH addition measured after 20 mins
Cytochrome P450 2A6 = target: T9, Cytochrome P450 2A6 (Homo sapiens, UniProt P11509); assay: Inhibition of CYP2A6 in human liver microsomes using Coumarin as substrate preincubated for 10 mins followed by NADPH addition measured after 15 mins
T9 sequence (P11509 whole entry): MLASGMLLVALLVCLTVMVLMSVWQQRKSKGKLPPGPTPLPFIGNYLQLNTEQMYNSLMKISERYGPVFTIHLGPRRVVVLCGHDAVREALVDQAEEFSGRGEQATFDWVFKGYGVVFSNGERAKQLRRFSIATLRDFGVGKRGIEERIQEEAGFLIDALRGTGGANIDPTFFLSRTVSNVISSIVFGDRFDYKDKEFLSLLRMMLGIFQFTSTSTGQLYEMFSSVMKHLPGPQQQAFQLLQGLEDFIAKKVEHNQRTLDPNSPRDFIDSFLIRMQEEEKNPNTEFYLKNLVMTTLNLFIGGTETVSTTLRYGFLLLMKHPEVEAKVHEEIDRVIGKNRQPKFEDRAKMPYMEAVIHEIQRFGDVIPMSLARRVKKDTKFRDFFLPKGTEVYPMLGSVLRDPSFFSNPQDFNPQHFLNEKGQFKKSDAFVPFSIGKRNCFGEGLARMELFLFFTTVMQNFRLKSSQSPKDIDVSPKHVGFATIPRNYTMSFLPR

Cytochrome P450 3A4 [11] = target: T7, Cytochrome P450 3A4; assay: Inhibition of recombinant human CYP3A4 expressed in baculosomes using Vivid BOMR substrate red measured every 30 sec for 30 mins by fluorescence assay
Cytochrome P450 2C19 [12] = target: T8, Cytochrome P450 2C19; assay: Inhibition of recombinant human CYP2C19 expressed in baculosomes using Vivid EOMCC substrate blue measured every 30 sec for 30 mins by fluorescence assay
Cytochrome P450 3A4 [13] = target: T7, Cytochrome P450 3A4; assay: Inhibition of recombinant human CYP3A4 expressed in baculosomes using Vivid DBOMF substrate green measured every 30 sec for 30 mins by fluorescence assay
Cytochrome P450 3A4 [14] = target: T7, Cytochrome P450 3A4; assay: Inhibition of recombinant human CYP3A4 expressed in baculosomes using Vivid BOMCC substrate blue measured every 30 sec for 30 mins by fluorescence assay
Cytochrome P450 2C19 [15] = target: T8, Cytochrome P450 2C19; assay: Inhibition of CYP2C19 in human liver microsomes using (S)-mephenytoin as substrate preincubated for 10 mins followed by NADPH addition measured after 40 mins
Cytochrome P450 2C9 [16] = target: T3, Cytochrome P450 2C9; assay: Inhibition of recombinant human CYP2C9 expressed in baculosomes using Vivid OOMR substrate red measured every 30 sec for 30 mins by fluorescence assay
Cytochrome P450 2D6 [17] = target: T1, Cytochrome P450 2D6; assay: Inhibition of recombinant human CYP2D6 expressed in baculosomes using Vivid EOMCC substrate blue measured every 30 sec for 30 mins by fluorescence assay
Cytochrome P450 3A4 [18] = target: T7, Cytochrome P450 3A4; assay: Inhibition of CYP3A4 in human liver microsomes using midazolam as substrate

T1 sequence (P10635 whole entry): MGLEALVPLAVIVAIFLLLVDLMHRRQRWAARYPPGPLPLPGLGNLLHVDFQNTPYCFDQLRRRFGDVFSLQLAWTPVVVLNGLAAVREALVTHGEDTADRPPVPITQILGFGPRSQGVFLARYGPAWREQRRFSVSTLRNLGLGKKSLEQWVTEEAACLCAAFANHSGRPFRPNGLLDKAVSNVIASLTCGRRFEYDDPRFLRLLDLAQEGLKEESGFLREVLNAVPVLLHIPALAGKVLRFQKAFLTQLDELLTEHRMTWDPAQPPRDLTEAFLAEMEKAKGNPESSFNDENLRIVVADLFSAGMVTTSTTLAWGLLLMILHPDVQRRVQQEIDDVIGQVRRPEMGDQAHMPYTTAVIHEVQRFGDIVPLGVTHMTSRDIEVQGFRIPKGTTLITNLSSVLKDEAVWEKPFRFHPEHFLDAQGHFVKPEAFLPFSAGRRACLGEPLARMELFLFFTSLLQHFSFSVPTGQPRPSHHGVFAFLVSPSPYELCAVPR

IC50 (Cytochrome P450 2D6 [1]) | IC50 (Cytochrome P450 2B6) | IC50 (Cytochrome P450 2C9 [4]) | IC50 (Cytochrome P450 2C8) | IC50 (Cytochrome P450 3A4 [7]) | IC50 (Cytochrome P450 1A2 [8]) | IC50 (Cytochrome P450 2E1 [10]) | IC50 (Cytochrome P450 2A6) | IC50 (Cytochrome P450 3A4 [11]) | IC50 (Cytochrome P450 2C19 [12]) | IC50 (Cytochrome P450 3A4 [13]) | IC50 (Cytochrome P450 3A4 [14]) | IC50 (Cytochrome P450 2C19 [15]) | IC50 (Cytochrome P450 2C9 [16]) | Structure (SMILES) | other results
87 µM | 5.8 µM | 3.3 µM | 2.9 µM | 8.3 µM | 2.5 µM | 76.1 µM | 83.3 µM | 4 µM | – | – | – | – | – | CCCCC/C=C/C(=O)CCc1ccc(O)c(OC)c1 [SHOGAOL] | IC50 (Cytochrome P450 2E1 [2]): 99.6 µM; IC50 (Cytochrome P450 2C9 [3]): 29.2 µM; IC50 (Cytochrome P450 1A2 [5]): 20.7 µM; IC50 (Cytochrome P450 3A4 [6]): 65.2 µM; IC50 (Cytochrome P450 2C19 [9]): 18.8 µM
74.5 µM | 8.1 µM | 8.7 µM | 2.2 µM | 8.1 µM | 27.3 µM | 93.2 µM | 59 µM | 10.5 µM | 12.5 µM | 11.6 µM | 8.7 µM | 8.1 µM | 6.8 µM | CCCCCCC[C@H](O)CC(=O)CCc1ccc(O)c(OC)c1 | IC50 (Cytochrome P450 2D6 [17]): 42.7 µM
54.9 µM | 4.3 µM | 7.5 µM | 2 µM | 7.1 µM | – | – | 98.3 µM | 24.9 µM | 13.6 µM | 21.8 µM | 20.8 µM | 6.6 µM | 16.3 µM | CCCCCCCCC[C@H](O)CC(=O)CCc1ccc(O)c(OC)c1 | –

Structure (SMILES) | IC50 (Cytochrome P450 2D6 [1]) | IC50 (Cytochrome P450 2B6) | IC50 (Cytochrome P450 2C9 [4]) | IC50 (Cytochrome P450 2C8) | IC50 (Cytochrome P450 3A4 [7]) | IC50 (Cytochrome P450 1A2 [8]) | IC50 (Cytochrome P450 2E1 [10]) | IC50 (Cytochrome P450 2A6) | IC50 (Cytochrome P450 3A4 [11]) | IC50 (Cytochrome P450 2C19 [12]) | IC50 (Cytochrome P450 3A4 [13]) | IC50 (Cytochrome P450 3A4 [14]) | IC50 (Cytochrome P450 2C19 [15]) | IC50 (Cytochrome P450 2C9 [16]) | other results
CCCCC[C@H](O)CC(=O)CCc1ccc(O)c(OC)c1 [GINGEROL] | – | 40.8 µM | – | – | – | – | – | – | 42.9 µM | 30.7 µM | 32 µM | 21.8 µM | – | 12.1 µM | IC50 (Cytochrome P450 3A4 [18]): 73.4 µM
